Data as given in PubChem BioAssay (NCI).
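Following 48 hours of exposure in 96-well plates, responses at five concentrations were used to interpolate endpoints linearly. GI50 marks 50% less growth. TGI denotes the concentration required for complete inhibition of growth.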

Key:
Assay in all cases: growth of human tumour cells (NCI), 48 h
HOP-92 NSCLC = test system: HOP-92 NSCLC
HCT-116 colon = test system: HCT-116 colon
OVCAR-8 ovarian = test system: OVCAR-8 ovarian
HT29 colon = test system: HT29 colon
SK-OV-3 ovarian = test system: SK-OV-3 ovarian
SF-268 CNS = test system: SF-268 CNS
OVCAR-5 ovarian = test system: OVCAR-5 ovarian
ACHN renal = test system: ACHN renal
MDA-MB-231 breast = test system: MDA-MB-231 breast
HL-60(TB) leukemia = test system: HL-60(TB) leukemia
HCT-15 colon = test system: HCT-15 colon
SNB-19 CNS = test system: SNB-19 CNS
NCI-H226 lung = test system: NCI-H226 lung
EKVX NSCLC = test system: EKVX NSCLC
NCI/ADR-RES ovarian = test system: NCI/ADR-RES ovarian
LOX IMVI melanoma = test system: LOX IMVI melanoma
RPMI-8226 leukemia = test system: RPMI-8226 leukemia
DU-145 prostate = test system: DU-145 prostate
HS 578T breast = test system: HS 578T breast
PC-3 prostate = test system: PC-3 prostate
IGROV1 ovarian = test system: IGROV1 ovarian
OVCAR-4 ovarian = test system: OVCAR-4 ovarian
786-0 renal = test system: 786-0 renal
M14 melanoma = test system: M14 melanoma
UACC-257 melanoma = test system: UACC-257 melanoma
CCRF-CEM leukemia = test system: CCRF-CEM leukemia
T-47D breast = test system: T-47D breast
SK-MEL-5 melanoma = test system: SK-MEL-5 melanoma
BT-549 breast = test system: BT-549 breast
COLO 205 colon = test system: COLO 205 colon
U251 CNS = test system: U251 CNS
UACC-62 melanoma = test system: UACC-62 melanoma
MCF7 breast = test system: MCF7 breast
SN12C renal = test system: SN12C renal
SK-MEL-28 melanoma = test system: SK-MEL-28 melanoma
HCC-2998 colon = test system: HCC-2998 colon
HOP-62 NSCLC = test system: HOP-62 NSCLC
SNB-75 CNS = test system: SNB-75 CNS
SF-295 CNS = test system: SF-295 CNS
KM12 colon = test system: KM12 colon
SK-MEL-2 melanoma = test system: SK-MEL-2 melanoma
OVCAR-3 ovarian = test system: OVCAR-3 ovarian
K-562 leukemia = test system: K-562 leukemia
A549 NSCLC = test system: A549 NSCLC
SW-620 colon = test system: SW-620 colon
SF-539 CNS = test system: SF-539 CNS
RXF 393 renal = test system: RXF 393 renal
MDA-MB-435 = test system: MDA-MB-435
UO-31 renal = test system: UO-31 renal
SR leukemia = test system: SR leukemia
MOLT-4 leukemia = test system: MOLT-4 leukemia
A498 renal = test system: A498 renal
NCI-H460 lung = test system: NCI-H460 lung
MALME-3M melanoma = test system: MALME-3M melanoma
NCI-H522 lung = test system: NCI-H522 lung
NCI-H23 lung = test system: NCI-H23 lung
TK-10 renal = test system: TK-10 renal

## CC(=O)OC[C@]1(C)C=C2C(=O)[C@](C)(O)C3(CC3)C(C)=C2[C@H]1OC(=O)N(C)CCN(C)C(=O)OC(C)(C)C
HOP-92 NSCLC
  GI50: 1080 nM
  TGI: 3.02 µM
HCT-116 colon
  GI50: 904 nM
  TGI: > 33.3 µM
OVCAR-8 ovarian
  GI50: 1050 nM
  TGI: 32.5 µM
HT29 colon
  GI50: 612 nM
  TGI: 3.26 µM
SK-OV-3 ovarian
  GI50: 1180 nM
  TGI: 5.33 µM
SF-268 CNS
  GI50: 1170 nM
  TGI: 8.57 µM
OVCAR-5 ovarian
  GI50: 1090 nM
  TGI: 7.18 µM
ACHN renal
  GI50: 947 nM
  TGI: 4.2 µM
MDA-MB-231 breast
  GI50: 1110 nM
  TGI: 4.72 µM
HL-60(TB) leukemia
  GI50: 949 nM
  TGI: > 33.3 µM
HCT-15 colon
  GI50: 889 nM
  TGI: > 33.3 µM
SNB-19 CNS
  GI50: 1190 nM
  TGI: > 33.3 µM
NCI-H226 lung
  GI50: 9.01 µM
  TGI: 25.1 µM
EKVX NSCLC
  GI50: 1700 nM
  TGI: 10.7 µM
NCI/ADR-RES ovarian
  GI50: 812 nM
  TGI: 2550 nM
LOX IMVI melanoma
  GI50: 1040 nM
  TGI: 7.18 µM
RPMI-8226 leukemia
  GI50: 2270 nM
  TGI: 19.1 µM
DU-145 prostate
  GI50: 850 nM
  TGI: 20.9 µM
HS 578T breast
  GI50: 2170 nM
  TGI: 14.9 µM
PC-3 prostate
  GI50: 1120 nM
  TGI: 6.51 µM
IGROV1 ovarian
  GI50: 732 nM
  TGI: 3.9 µM
OVCAR-4 ovarian
  GI50: 797 nM
  TGI: 2720 nM
786-0 renal
  GI50: 938 nM
  TGI: 2800 nM
M14 melanoma
  GI50: 788 nM
  TGI: 2400 nM
UACC-257 melanoma
  GI50: 1820 nM
  TGI: 13.8 µM
CCRF-CEM leukemia
  GI50: 1440 nM
  TGI: > 33.3 µM
T-47D breast
  GI50: 858 nM
  TGI: 9.64 µM
SK-MEL-5 melanoma
  GI50: 630 nM
  TGI: 1400 nM
BT-549 breast
  GI50: 898 nM
  TGI: 3.13 µM
COLO 205 colon
  GI50: 744 nM
  TGI: 2580 nM
U251 CNS
  GI50: 1110 nM
  TGI: > 33.3 µM
UACC-62 melanoma
  GI50: 728 nM
  TGI: 1610 nM
MCF7 breast
  GI50: 652 nM
  TGI: > 33.3 µM
SN12C renal
  GI50: 1220 nM
  TGI: 7.83 µM
SK-MEL-28 melanoma
  GI50: 1200 nM
  TGI: 4.69 µM
HCC-2998 colon
  GI50: 1080 nM
  TGI: 3.74 µM
HOP-62 NSCLC
  GI50: 1010 nM
  TGI: 3.79 µM
SNB-75 CNS
  GI50: 1870 nM
  TGI: 8.11 µM
SF-295 CNS
  GI50: 926 nM
  TGI: 4.88 µM
KM12 colon
  GI50: 1350 nM
  TGI: 30.7 µM
SK-MEL-2 melanoma
  GI50: 695 nM
  TGI: 1420 nM
OVCAR-3 ovarian
  GI50: 1060 nM
  TGI: 4.05 µM
K-562 leukemia
  GI50: 1400 nM
  TGI: > 33.3 µM
A549 NSCLC
  GI50: 1360 nM
  TGI: 31.1 µM
SW-620 colon
  GI50: 896 nM
  TGI: > 33.3 µM
SF-539 CNS
  GI50: 816 nM
  TGI: 2240 nM
RXF 393 renal
  GI50: 581 nM
  TGI: 1320 nM
MDA-MB-435
  GI50: 809 nM
  TGI: 2350 nM
UO-31 renal
  GI50: 732 nM
  TGI: 2230 nM
SR leukemia
  GI50: 961 nM
  TGI: > 33.3 µM
MOLT-4 leukemia
  GI50: 1550 nM
  TGI: > 33.3 µM
A498 renal
  GI50: 1300 nM
  TGI: 4.83 µM
NCI-H460 lung
  GI50: 833 nM
  TGI: 4.19 µM
MALME-3M melanoma
  GI50: 784 nM
  TGI: 2270 nM
NCI-H522 lung
  GI50: 668 nM
  TGI: 1620 nM
NCI-H23 lung
  GI50: 651 nM
  TGI: 1910 nM
TK-10 renal
  GI50: 1370 nM
  TGI: 6.87 µM
